This note sets out measurements from paper PMC9814697, “β-Hydroxylation of α-amino-β-hydroxylbutanoyl-glycyluridine catalyzed by a nonheme hydroxylase ensures the maturation of caprazamycin” (Communications Chemistry, 2022).

The target of data set [1] is T1, Cpz27 (Streptomyces sp. MK730-62F2, UniProt C4NCL4).
T1 construct: pGM1202, Streptomyces lividans TK64, His6-tag kept
The data set can be described thus: LC-MS turnover. The conditions noted are these: 1 mM, with 500 μM compound 13, 1 mM Mg, pH 8.0, 28 °C. In kind it is biochemical.

Data set [2] deals with T2, Cpz15 (Streptomyces sp. MK730-62F2, UniProt C4NCK2).
T2 construct: pET28a, E. coli BL21(DE3), His6-tag kept
T2 sequence (C4NCK2 1-274): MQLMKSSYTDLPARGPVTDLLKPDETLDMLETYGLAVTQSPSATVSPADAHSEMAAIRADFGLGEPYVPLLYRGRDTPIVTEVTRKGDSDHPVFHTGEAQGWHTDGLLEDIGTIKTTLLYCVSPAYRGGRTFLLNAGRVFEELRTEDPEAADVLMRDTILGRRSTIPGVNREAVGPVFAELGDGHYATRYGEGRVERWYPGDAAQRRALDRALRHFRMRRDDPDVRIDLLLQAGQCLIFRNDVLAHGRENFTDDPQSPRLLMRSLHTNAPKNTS
The data set can be described thus: LC-MS turnover. In kind it is biochemical. The conditions noted are these: 1 mM UMP, 1.5 mM αKG, ascorbate, FeSO4, pH 8.0, 28 °C; product uridine 5'-aldehyde.

Data set [3] has as its target T3, Cpz10 (Streptomyces sp. MK730-62F2, UniProt C4NCJ7).
T3 construct: pET28a, E. coli BL21(DE3), His6-tag kept; homodimer in solution
T3 sequence (C4NCJ7 1-182): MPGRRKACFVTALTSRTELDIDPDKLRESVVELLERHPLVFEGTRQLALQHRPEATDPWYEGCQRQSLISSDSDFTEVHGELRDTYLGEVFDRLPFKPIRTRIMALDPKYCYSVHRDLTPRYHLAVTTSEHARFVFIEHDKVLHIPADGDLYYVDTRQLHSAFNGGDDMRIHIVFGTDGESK
The data set can be described thus: X-ray crystal structure. The data set is classed as binding.

Substrate in data set [4]: CSCC[C@H](N)C(=O)O
The data set can be described thus: LC assay, Michaelis-Menten. In kind it is biochemical, Streptomyces sp. MK730-62F2. The conditions noted are these: pseudo-first order condition, αKG, ascorbate, FeSO4, pH 7.5, 28 °C, sulfoxidation to MSO.

T1 sequence (C4NCL4 entry or part of it): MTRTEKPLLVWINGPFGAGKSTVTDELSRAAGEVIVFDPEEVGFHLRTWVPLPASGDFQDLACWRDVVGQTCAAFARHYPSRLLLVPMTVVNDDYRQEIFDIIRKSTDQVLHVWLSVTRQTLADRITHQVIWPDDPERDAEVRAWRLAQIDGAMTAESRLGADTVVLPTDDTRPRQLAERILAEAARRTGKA

In the case of `Nc1ncnc2c1ncn2[C@@H]1O[C@H](COP(=O)(O)OP(=O)(O)OP(=O)(O)O)[C@@H](O)[C@H]1O` [ATP], the LC-MS turnover result in data set [1] was “at the expense of one molecule of ATP”. Regarding `O=c1ccn([C@@H]2O[C@H](COP(=O)(O)O)[C@@H](O)[C@H]2O)c(=O)[nH]1` [UMP], in data set [2], the LC-MS turnover result was “a new peak emerge on the LC trace concomitant with dwindling of UMP”. Turning to `O=C(O)CCC(=O)O` [succinic acid], the X-ray crystal structure result in data set [3] (formed in crystal from soaked αKG, with compound 12 and Fe1) was “αKG soaked in the crystals has been converted to succinic acid”.

Take `O=C(O)CCC(=O)C(=O)O` [αKG]: the X-ray crystal structure entry in data set [3] (Fe1 present, 1.9 Å, bidentate to Fe1) was “two complexes (with αKG (PDB code: 7V4M)”.

B1: Cpz10 (Streptomyces sp. MK730-62F2) (protein)
chain: T3 sequence (C4NCJ7 1-182)
notes: pET28a, E. coli BL21(DE3), His6-tag kept; homodimer in solution
Turning to B1, in data set [4], the Km turned out to be 892.1 ± 9 µM and the kcat worked out at 0.977 ± 0.013 s⁻¹.
